Results published in patent publication US20260151379A1, “SALT TYPE AND CRYSTAL FORM OF COMPLEMENT FACTOR B INHIBITOR, AND PREPARATION METHOD THEREFOR AND APPLICATION THEREOF” (SHANGHAI MEIYUE BIOTECH DEVELOPMENT CO., LTD., priority 2022, published 2026).
Several values for one entry are separate records, joined by “and”; a condition that tells them apart may be missing. Equal values may be shown once. Where a name gives a salt, the structure may show the parent alone. Blank lines part the entries; values can stand above or below the compound they belong to.

Tests used:
Format in all cases: physicochemical
[1] = Stability tests of compound of formula I and its monohydrochloride, phosphate and maleate (Example 4); conditions: for Stability (conclusion in words from Table 7): 40° C./75% RH closed/open and 60° C. closed, 2 wks
Method: The stability of the compound of formula I, the monohydrochloride of the compound of formula I in Example 1, the phosphate of the compound of formula I in Example 2, and the maleate of the compound of formula I in Example 3 were investigated.
Stability investigation conditions: 40° C./75% RH-closed, 40° C./75% RH-open, and 60° C.-closed; stability investigation content: changes in related substances and crystal forms.
Detection of related substances: about 6-7 mg of a sample was separately weighed out and added to a 10 mL volumetric flask; 50% aqueous acetonitrile solution was added for dissolution; the mixture was diluted to volume; and 10 μL of the sample was injected.

[2] = Solubility tests in water, SGF, FaSSIF, FeSSIF at 37° C. (Example 5)
Method: Experimental procedures: 30 mg (in water) or 15 mg of a sample was weighed out and added to a 4 mL vial; 3 mL of a medium to be tested (water, SGF, FaSSIF, or FeSSIF) was added; the mixture was continuously stirred at 37° C.; 0.5 mL of the sample was separately collected at 1 h and 24 h; centrifugation was performed at 12000 rpm for 10 min; the supernatant was diluted with 50% aqueous acetonitrile solution to an appropriate multiple; and the concentration of the supernatant was determined.
(§1) Control and linearity: 10 mg of the compound of formula I was weighed out and added to a 50 mL volumetric flask, 50% aqueous acetonitrile solution was added for dissolution, and the mixture was diluted to volume. Two parts were prepared in parallel. The control of the compound of formula I was taken and diluted with 50% aqueous acetonitrile solution to 100 μg/mL, 50 μg/mL, and 10 μg/mL, 5 μL of the sample was injected, and a standard curve was plotted.

[3] = Open storage of crystal form A under acceleration conditions (Example 7); conditions: 40° C./75% RH, 72 h
Source text: The crystal form B is a monohydrate of the monohydrochloride of the compound of formula I.

[4] = Stability investigation of crystal form C of monohydrochloride, 1 month (Example 11)
Method: […] The stability of the crystal form was investigated.
Detection method for related substances of the stability sample: about 6 mg of the sample was weighed out and added to a 40 mL clean glass bottle; 10 mL of 50% aqueous acetonitrile solution was added; the sample was dissolved completely by ultrasonication; and 10 μL of the sample was injected for the test of the related substances, as shown in Table 15. The XRPD pattern is shown in FIG. 18, wherein HCl-salt Form 3-initial (hereinafter referred to as initial) represents the XRPD pattern of the crystal form C prepared in Example 8.

[5] = Effect of high temperature and high humidity on crystal form C (Example 12); conditions: open, 60° C., 80% RH and 92.5% RH, 1 day and 3 days
Source text: The sample was separately collected on 1d and 3d for XRPD testing.

[6] = Solubility tests of compound of formula I, mixture of crystal forms A and B, and crystal form C at 37° C. (Example 13)
Method: An appropriate amount of a test sample was weighed out and added to a vial; 3 mL of a medium (water, SGF, FaSSIF, FeSSIF, or the like) was added; the mixture was stirred at 37° C.; […]; centrifugation was performed at 12000 rpm for 10 min; the supernatant was diluted with 50% aqueous acetonitrile solution to an appropriate multiple; and the concentration of the supernatant was determined.
as §1, with “control” for “control of the compound of formula I”

[7] = FaSSIF, listed as Compound of formula I Hydrochloride
[8] = FeSSIF, listed as Compound of formula I Hydrochloride
[9] = SGF, listed as Compound of formula I Hydrochloride
[10] = Water, listed as Compound of formula I Hydrochloride
[11] = Initial, listed as Crystal form C of monohydrochloride of compound of formula I
[12] = pH 6.8 (adjusted with sodium hydroxide solution), 37° C.
[13] = pH 7.4 (adjusted with sodium hydroxide solution), 37° C.

SMILES: COc1cc(C)c2[nH]ccc2c1CN1CCC(OCC2CC2)CC1c1ccc(C(=O)O)cc1.O=C(O)C=CC(=O)O (stereo not shown) [Compound of formula I Maleate]
Stability (conclusion in words from Table 7) [1]: stable
Appearance ([1]; 40° C./75% RH-closed-2 wks): White powder
Maximum single impurity % ([1]; 40° C./75% RH-closed-2 wks): 0.08%
Purity % ([1]; 40° C./75% RH-closed-2 wks): 99.78%
Total impurity % ([1]; 40° C./75% RH-closed-2 wks): 0.22%
Maximum single impurity % ([1]; 40° C./75% RH-open-2 wks): 0.09%
Purity % ([1]; 40° C./75% RH-open-2 wks): 99.64%
Total impurity % ([1]; 40° C./75% RH-open-2 wks): 0.36%
Appearance ([1]; 60° C.-closed-2 wks): White powder
Maximum single impurity % ([1]; 60° C.-closed-2 wks): 0.09%
Purity % ([1]; 60° C.-closed-2 wks): 99.69%
Total impurity % ([1]; 60° C.-closed-2 wks): 0.31%
Appearance ([1]; Initial): White powder
Maximum single impurity % ([1]; Initial): 0.08%
Purity % ([1]; Initial): 99.80%
Total impurity % ([1]; Initial): 0.20%

SMILES: COc1cc(C)c2[nH]ccc2c1CN1CCC(OCC2CC2)CC1c1ccc(C(=O)O)cc1.O=P(O)(O)O (stereo not shown) [Compound of formula I Phosphate]
Stability (conclusion in words from Table 7) [1]: stable
Appearance ([1]; 40° C./75% RH-closed-2 wks): White powder
Maximum single impurity % ([1]; 40° C./75% RH-closed-2 wks): 0.09%
Purity % ([1]; 40° C./75% RH-closed-2 wks): 99.63%
Total impurity % ([1]; 40° C./75% RH-closed-2 wks): 0.37%
Appearance ([1]; 40° C./75% RH-open-2 wks): White powder
Maximum single impurity % ([1]; 40° C./75% RH-open-2 wks): 0.09%
Purity % ([1]; 40° C./75% RH-open-2 wks): 99.64%
Total impurity % ([1]; 40° C./75% RH-open-2 wks): 0.36%
Appearance ([1]; 60° C.-closed-2 wks): White powder
Maximum single impurity % ([1]; 60° C.-closed-2 wks): 0.08%
Purity % ([1]; 60° C.-closed-2 wks): 99.62%
Total impurity % ([1]; 60° C.-closed-2 wks): 0.38%
Appearance ([1]; Initial): White powder
Maximum single impurity % ([1]; Initial): 0.07%
Purity % ([1]; Initial): 99.75%
Total impurity % ([1]; Initial): 0.25%
Final pH ([2]; FaSSIF): 4.76
Solubility (mg/mL) (1 h) ([2]; FaSSIF): 0.45 mg/mL
Solubility (mg/mL) (24 h) ([2]; FaSSIF): 0.27 mg/mL
Final pH ([2]; FessIF): 4.84
Solubility (mg/mL) (1 h) ([2]; FessIF): 0.64 mg/mL
Solubility (mg/mL) (24 h) ([2]; FessIF): 0.40 mg/mL
Final pH ([2]; SGF): 1.61
Solubility (mg/mL) (1 h) ([2]; SGF): 5.35 mg/mL
Solubility (mg/mL) (24 h) ([2]; SGF): 5.55 mg/mL
Final pH ([2]; Water): 2.53
Solubility (mg/mL) (1 h) ([2]; Water): 8.07 mg/mL
Solubility (mg/mL) (24 h) ([2]; Water): 6.24 mg/mL

SMILES: COc1cc(C)c2[nH]ccc2c1CN1CC[C@H](OCC2CC2)C[C@H]1c1ccc(C(=O)O)cc1 [Compound of formula I Monohydrochloride]
Stability (conclusion in words from Table 7) ([1]; listed as monohydrochloride): more stable
Appearance ([1]; 40° C./75% RH-closed-2 wks): White powder
Maximum single impurity % ([1]; 40° C./75% RH-closed-2 wks): 0.11%
Purity % ([1]; 40° C./75% RH-closed-2 wks): 99.57%
Total impurity % ([1]; 40° C./75% RH-closed-2 wks): 0.43%
Appearance ([1]; 40° C./75% RH-open-2 wks): White powder
Maximum single impurity % ([1]; 40° C./75% RH-open-2 wks): 0.10%
Purity % ([1]; 40° C./75% RH-open-2 wks): 99.59%
Total impurity % ([1]; 40° C./75% RH-open-2 wks): 0.41%
Appearance ([1]; 60° C.-closed-2 wks): White powder
Maximum single impurity % ([1]; 60° C.-closed-2 wks): 0.13%
Purity % ([1]; 60° C.-closed-2 wks): 99.59%
Total impurity % ([1]; 60° C.-closed-2 wks): 0.41%
Appearance ([1]; Initial): White powder
Maximum single impurity % ([1]; Initial): 0.14%
Purity % ([1]; Initial): 99.59%
Total impurity % ([1]; Initial): 0.41%
Final pH [2, 7]: 3.83
Solubility (mg/mL) (1 h) [2, 7]: 0.64 mg/mL
Solubility (mg/mL) (24 h) [2, 7]: 0.39 mg/mL
Final pH [2, 8]: 4.85
Solubility (mg/mL) (1 h) [2, 8]: 0.74 mg/mL
Solubility (mg/mL) (24 h) [2, 8]: 0.44 mg/mL
Final pH [2, 9]: 1.52
Solubility (mg/mL) (1 h) [2, 9]: 5.90 mg/mL
Solubility (mg/mL) (24 h) [2, 9]: 5.97 mg/mL
Final pH [2, 10]: 2.49
Solubility (mg/mL) (1 h) [2, 10]: 11.74 mg/mL
Solubility (mg/mL) (24 h) [2, 10]: 11.14 mg/mL

Now from value to compound, other results behind:

Crystal form after open storage [3]: transformed into crystal form B
SMILES: COc1cc(C)c2[nH]ccc2c1CN1CCC(OCC2CC2)CC1c1ccc(C(=O)O)cc1.Cl (stereo not shown) [Crystal form A]

Chemical stability (in words) ([4]; 40° C./75% RH and 60° C. for 1 month): good chemical stability
Maximum single impurity % ([4]; 40° C./75% RH-closed-1 M): 0.29%
Purity % ([4]; 40° C./75% RH-closed-1 M): 99.58%
Total impurity % ([4]; 40° C./75% RH-closed-1 M): 0.42%
Maximum single impurity % ([4]; 40° C.75% RH-open-1 M): 0.27%
Purity % ([4]; 40° C.75% RH-open-1 M): 99.60%
Total impurity % ([4]; 40° C.75% RH-open-1 M): 0.40%
Maximum single impurity % ([4]; 60° C.-closed-1 M): 0.32%
Purity % ([4]; 60° C.-closed-1 M): 99.56%
Total impurity % ([4]; 60° C.-closed-1 M): 0.44%
Appearance ([4]; Initial): White powder
Maximum single impurity % [4, 11]: 0.65% and 0.96%
Purity % [4, 11]: 99.17% and 98.88%
Total impurity % [4, 11]: 0.83% and 1.12%
Crystal form by XRPD after storage (FIG. 18) ([4]; acceleration and high temperature conditions, 1 month): not changed
Crystal form by XRPD after exposure (FIGS. 19 and 20) [5]: not changed
Final pH ([6]; FaSSIF, 37° C.): 3.27
solubility at 1 h ([6]; FaSSIF, 37° C.): 1160 µg/mL
solubility at 24 h ([6]; FaSSIF, 37° C.): 880 µg/mL
Final pH ([6]; FessIF, 37° C.): 4.83
solubility at 1 h ([6]; FessIF, 37° C.): 640 µg/mL
solubility at 24 h ([6]; FessIF, 37° C.): 420 µg/mL
Final pH ([6]; SGF, 37° C.): 1.26
solubility at 1 h ([6]; SGF, 37° C.): 940 µg/mL
solubility at 24 h ([6]; SGF, 37° C.): 790 µg/mL
Final pH ([6]; Water, 37° C.): 2.49
solubility at 1 h ([6]; Water, 37° C.): 8320 µg/mL
solubility at 24 h ([6]; Water, 37° C.): 7540 µg/mL
Solubility at 1 h (mg/mL) [6, 12]: 0.56(1 h) mg/mL
Solubility (mg/mL) (48 h) [6, 12]: 0.21(48 h) mg/mL
Final pH ([6]; pH 6.8, 37° C., 1 h line): 6.65
Final pH ([6]; pH 6.8, 37° C., 48 h line): 6.82
Solubility at 1 h (mg/mL) [6, 13]: 0.45(1 h) mg/mL
Solubility (mg/mL) (48 h) [6, 13]: 0.24(48 h) mg/mL
Final pH ([6]; pH 7.4, 37° C., 1 h line): 7.23
Final pH ([6]; pH 7.4, 37° C., 48 h line): 7.42
SMILES: COc1cc(C)c2[nH]ccc2c1CN1CCC(OCC2CC2)CC1c1ccc(C(=O)O)cc1.Cl (stereo not shown) [Crystal form C]
Solubility in water compared to mixture of crystal forms A and B (in words) ([6]; Water, 37° C.): reduced solubility in water compared to the mixture of crystal forms A and B
